# Species on record: Rattus norvegicus
# Assay: Open TG-GATES - Regimen: Daily Repeat
# Type: toxicity, organism-based, Sprague-Dawley
# Set-up: regimen Daily Repeat, gender Male, age 6 weeks
# Settings: in vivo, po, 1000 mg/kg, route gavage, dose level High; for APTT / Bas / Eos / Fbg / Hb / Ht / Lym / MCH / MCHC / MCV / Mono / Neu / PT / Plat / RBC / Ret / WBC: tissue Blood; for KIDNEY_L / KIDNEY_R / KIDNEY_TOTAL: tissue Kidney; for LIVER: tissue Liver; for A/G / ALP / ALT / AST / BUN / CRE / Ca / Cl / DBIL / GLC / IP / LDH / Na / PL / RALB / TBIL / TC / TG / TP / gamma-GTP: tissue Plasma
smiles,measurement,setting,value
NC(N)=Nc1nc(CSCCC(N)=NS(N)(=O)=O)cs1 [FAMOTIDINE],TERMINAL_BW,"72 h, time 3 day",226 g
same,APTT,"72 h, time 3 day",19.5 s
same,Bas,"72 h, time 3 day",0%
same,Eos,"72 h, time 3 day",1%
same,Fbg,"72 h, time 3 day",226.2 mg/dL
same,Hb,"72 h, time 3 day",13.2 g/dL
same,Ht,"72 h, time 3 day",36.9%
same,Lym,"72 h, time 3 day",79%
same,MCH,"72 h, time 3 day",21.9 pg
same,MCHC,"72 h, time 3 day",36%
same,MCV,"72 h, time 3 day",60.8 fL
same,Mono,"72 h, time 3 day",2.6%
same,Neu,"72 h, time 3 day",14.4%
same,PT,"72 h, time 3 day",11.9 s
same,Plat,"72 h, time 3 day",126.7 x10_4/uL
same,RBC,"72 h, time 3 day",607 x10_4/ul
same,Ret,"72 h, time 3 day",4.4%
same,WBC,"72 h, time 3 day",84.8 x10_2/uL
same,KIDNEY_L,"72 h, time 3 day",1 g
same,KIDNEY_R,"72 h, time 3 day",1 g
same,KIDNEY_TOTAL,"72 h, time 3 day",2 g
same,LIVER,"72 h, time 3 day",10.4 g
same,A/G,"72 h, time 3 day",1.5
same,ALP,"72 h, time 3 day",917.2 IU/L
same,ALT,"72 h, time 3 day",32.8 IU/L
same,AST,"72 h, time 3 day",60.4 IU/L
same,BUN,"72 h, time 3 day",15.4 mg/dL
same,CRE,"72 h, time 3 day",0.4 mg/dL
same,Ca,"72 h, time 3 day",10.8 mg/dL
same,Cl,"72 h, time 3 day",104.2 meq/L
same,DBIL,"72 h, time 3 day",0.088 mg/dL
same,GLC,"72 h, time 3 day",179.4 mg/dL
same,IP,"72 h, time 3 day",7.7 mg/dL
same,LDH,"72 h, time 3 day",185.8 IU/L
same,Na,"72 h, time 3 day",141.2 meq/L
same,PL,"72 h, time 3 day",137.8 mg/dL
same,RALB,"72 h, time 3 day",3.3 g/dL
same,TBIL,"72 h, time 3 day",0.1 mg/dL
same,TC,"72 h, time 3 day",77.6 mg/dL
same,TG,"72 h, time 3 day",79.6 mg/dL
same,TP,"72 h, time 3 day",5.5 g/dL
same,gamma-GTP,"72 h, time 3 day",1 IU/L
same,TERMINAL_BW,"[…], time 7 day",262.1 g
same,TERMINAL_BW,"[…], time 14 day",322.6 g
same,TERMINAL_BW,"[…], time 28 day",376.8 g
same,APTT,"[…], time 7 day",21.5 s
same,Bas,"[…], time 7 day",0%
same,Eos,"[…], time 7 day",1.2%
same,Fbg,"[…], time 7 day",223.4 mg/dL
same,Hb,"[…], time 7 day",13.6 g/dL
same,Ht,"[…], time 7 day",38.2%
same,Lym,"[…], time 7 day",75%
same,MCH,"[…], time 7 day",21.5 pg
same,MCHC,"[…], time 7 day",35.5%
same,MCV,"[…], time 7 day",60.3 fL
same,Mono,"[…], time 7 day",2.8%
same,Neu,"[…], time 7 day",19.6%
same,PT,"[…], time 7 day",12.1 s
same,Plat,"[…], time 7 day",122.6 x10_4/uL
same,RBC,"[…], time 7 day",634.4 x10_4/ul
same,Ret,"[…], time 7 day",5.5%
same,WBC,"[…], time 7 day",107.5 x10_2/uL
same,APTT,"[…], time 14 day",23.4 s
same,Bas,"[…], time 14 day",0%
same,Eos,"[…], time 14 day",0.8%
same,Fbg,"[…], time 14 day",228 mg/dL
same,Hb,"[…], time 14 day",13.9 g/dL
same,Ht,"[…], time 14 day",40.7%
same,Lym,"[…], time 14 day",76.8%
same,MCH,"[…], time 14 day",21.2 pg
same,MCHC,"[…], time 14 day",34.2%
same,MCV,"[…], time 14 day",62 fL
same,Mono,"[…], time 14 day",2.2%
same,Neu,"[…], time 14 day",18.6%
same,PT,"[…], time 14 day",12.5 s
same,Plat,"[…], time 14 day",117.7 x10_4/uL
same,RBC,"[…], time 14 day",656.2 x10_4/ul
same,Ret,"[…], time 14 day",4.8%
same,WBC,"[…], time 14 day",111.7 x10_2/uL
same,APTT,"[…], time 28 day",21.5 s
same,Bas,"[…], time 28 day",0%
same,Eos,"[…], time 28 day",1.2%
same,Fbg,"[…], time 28 day",222.2 mg/dL
same,Hb,"[…], time 28 day",15.7 g/dL
same,Ht,"[…], time 28 day",44.1%
same,Lym,"[…], time 28 day",84.8%
same,MCH,"[…], time 28 day",19.7 pg
same,MCHC,"[…], time 28 day",35.6%
same,MCV,"[…], time 28 day",55.4 fL
same,Mono,"[…], time 28 day",1.4%
same,Neu,"[…], time 28 day",11%
same,PT,"[…], time 28 day",12.5 s
same,Plat,"[…], time 28 day",100.2 x10_4/uL
same,RBC,"[…], time 28 day",796.6 x10_4/ul
same,Ret,"[…], time 28 day",1.9%
same,WBC,"[…], time 28 day",114.1 x10_2/uL
same,KIDNEY_L,"[…], time 7 day",1.2 g
same,KIDNEY_R,"[…], time 7 day",1.2 g
same,KIDNEY_TOTAL,"[…], time 7 day",2.4 g
same,KIDNEY_L,"[…], time 14 day",1.3 g
same,KIDNEY_R,"[…], time 14 day",1.3 g
same,KIDNEY_TOTAL,"[…], time 14 day",2.6 g
same,KIDNEY_L,"[…], time 28 day",1.3 g
same,KIDNEY_R,"[…], time 28 day",1.3 g
same,KIDNEY_TOTAL,"[…], time 28 day",2.7 g
same,LIVER,"[…], time 7 day",12.2 g
same,LIVER,"[…], time 14 day",14 g
same,LIVER,"[…], time 28 day",14.6 g
same,A/G,"[…], time 7 day",1.5
same,ALP,"[…], time 7 day",987.2 IU/L
same,ALT,"[…], time 7 day",36.6 IU/L
same,AST,"[…], time 7 day",69.8 IU/L
same,BUN,"[…], time 7 day",14.6 mg/dL
same,CRE,"[…], time 7 day",0.4 mg/dL
same,Ca,"[…], time 7 day",10.8 mg/dL
same,Cl,"[…], time 7 day",103.6 meq/L
same,DBIL,"[…], time 7 day",0.088 mg/dL
same,GLC,"[…], time 7 day",183.6 mg/dL
same,IP,"[…], time 7 day",7.3 mg/dL
same,LDH,"[…], time 7 day",184 IU/L
same,Na,"[…], time 7 day",140.8 meq/L
same,PL,"[…], time 7 day",147.6 mg/dL
same,RALB,"[…], time 7 day",3.4 g/dL
same,TBIL,"[…], time 7 day",0.1 mg/dL
same,TC,"[…], time 7 day",79 mg/dL
same,TG,"[…], time 7 day",69.4 mg/dL
same,TP,"[…], time 7 day",5.6 g/dL
same,gamma-GTP,"[…], time 7 day",1 IU/L
same,A/G,"[…], time 14 day",1.5
same,ALP,"[…], time 14 day",838 IU/L
same,ALT,"[…], time 14 day",36.6 IU/L
same,AST,"[…], time 14 day",64.6 IU/L
same,BUN,"[…], time 14 day",16.4 mg/dL
same,CRE,"[…], time 14 day",0.5 mg/dL
same,Ca,"[…], time 14 day",10.8 mg/dL
same,Cl,"[…], time 14 day",103.4 meq/L
same,DBIL,"[…], time 14 day",0.078 mg/dL
same,GLC,"[…], time 14 day",196.6 mg/dL
same,IP,"[…], time 14 day",7.4 mg/dL
same,LDH,"[…], time 14 day",162 IU/L
same,Na,"[…], time 14 day",140.6 meq/L
same,PL,"[…], time 14 day",134.8 mg/dL
same,RALB,"[…], time 14 day",3.6 g/dL
same,TBIL,"[…], time 14 day",0.1 mg/dL
same,TC,"[…], time 14 day",72.4 mg/dL
same,TG,"[…], time 14 day",66.8 mg/dL
same,TP,"[…], time 14 day",5.9 g/dL
same,gamma-GTP,"[…], time 14 day",1.6 IU/L
same,A/G,"[…], time 28 day",1.3
same,ALP,"[…], time 28 day",722.6 IU/L
same,ALT,"[…], time 28 day",36.2 IU/L
same,AST,"[…], time 28 day",62.4 IU/L
same,BUN,"[…], time 28 day",17.4 mg/dL
same,CRE,"[…], time 28 day",0.6 mg/dL
same,Ca,"[…], time 28 day",10.3 mg/dL
same,Cl,"[…], time 28 day",102.8 meq/L
same,DBIL,"[…], time 28 day",0.076 mg/dL
same,GLC,"[…], time 28 day",220 mg/dL
same,IP,"[…], time 28 day",7 mg/dL
same,LDH,"[…], time 28 day",132.6 IU/L
same,Na,"[…], time 28 day",141.6 meq/L
same,PL,"[…], time 28 day",121.2 mg/dL
same,RALB,"[…], time 28 day",3.4 g/dL
same,TBIL,"[…], time 28 day",0.1 mg/dL
same,TC,"[…], time 28 day",62.4 mg/dL
same,TG,"[…], time 28 day",72.2 mg/dL
same,TP,"[…], time 28 day",6 g/dL
same,gamma-GTP,"[…], time 28 day",1.4 IU/L

# Source: ChEMBL document CHEMBL3885861, “Open TG-GATES”
